Patent publication US20250228865A1, “COMPOUNDS FOR ENHANCING READ THROUGH OF GENES CONTAINING PREMATURE TERMINATION CODONS AND METHODS FOR MAKING AND USING THE SAME” (Sanofi US Services Inc., priority 2022, published 2025)

Columns and labels:
[1] = system: recombinant human CFTR carrying the premature stop codon (PTC) mutation G542X; experiment: CFTR-PTC mutant translation readthrough, Nanoluc tagged CFTR luminescence (G542X cell line); assay type: cell-based; conditions: in combination with G418, G542X cell line; for CFTR G542X ACTIVITY Fold 10 μM G-418: fold over 10 μM G-418; for EC50: 16HBE cells
Procedure, shortened: (§1)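 Readthrough is the 48 h compound-induced luminescence increase scaled to that of maximal G418 (125-250 μM). Compounds run from 50 μM final in 2-fold steps, ±10 μM G418, on 16HBE lines carrying Nanoluc-tagged CFTR G542X (extracellular loop 4 tag) or R1162X (C-terminal tag), with 3 μM VX-809 present.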

[2] = system: recombinant human CFTR carrying the premature stop codon (PTC) mutation R1162X; experiment: CFTR-PTC mutant translation readthrough, Nanoluc tagged CFTR luminescence (R1162X cell line); assay type: cell-based; conditions: for CFTR R1162X ACTIVITY Fold 10 μM G-418: fold over 10 μM G-418, in combination with G418; for EC50: in combination with G418, 16HBE cells, read-out: CFTR R1162X ACTIVITY EC50
Procedure, shortened: as §1

EC50 [1] [nM] | EC50 [2] [nM] | SMILES | CFTR G542X ACTIVITY Fold 10 μM G-418 [1] | CFTR R1162X ACTIVITY Fold 10 μM G-418 [2]
< 1000 | < 1000 | Cc1cccc(C(F)(F)F)c1COc1cnc(-n2ncc(-c3ccccn3)n2)nc1 | A′ (A′ = ≥10X) | A′ (A′ = ≥10X)
< 1000 | 1000 to 10000 | OCc1ccn(-c2ncc(OCc3c(Cl)cccc3OC(F)(F)F)cn2)n1 | A′ (A′ = ≥10X) | B′ (B′ = ≥5X to <10X)
1000 to 10000 | 1000 to 10000 | NC(=O)c1ccc(OCc2c(Cl)cccc2Cl)cn1 [5-[(2,6-dichlorophenyl)methoxy]pyridine-2-carboxamide] | A′ (A′ = ≥10X) | B′ (B′ = ≥5X to <10X)
< 1000 | 1000 to 10000 | Cc1cccc(C(F)(F)F)c1COc1cnc(N2CCC(N)CC2)nc1 | A′ (A′ = ≥10X) | A′ (A′ = ≥10X)
> 10000 | > 10000 | O=C1N[C@H](CO)C(=O)N1c1ccc(OCc2c(Cl)cccc2Cl)cn1 | A′ (A′ = ≥10X) | B′ (B′ = ≥5X to <10X)
1000 to 10000 | 1000 to 10000 | CC1(C)NC(=O)N(c2ccc(OCc3c(Cl)cccc3C(F)(F)F)cn2)C1=O | A′ (A′ = ≥10X) | B′ (B′ = ≥5X to <10X)
< 1000 | < 1000 | FC(F)(F)c1cccc(Cl)c1COc1cnc(-n2ncc(-c3ccccn3)n2)nc1 | A′ (A′ = ≥10X) | A′ (A′ = ≥10X)
1000 to 10000 | 1000 to 10000 | Cc1cccc(OC(F)F)c1COc1cnc(-n2ccc(CO)n2)nc1 | A′ (A′ = ≥10X) | C′ (C′ = <5X)
< 1000 | 1000 to 10000 | OC[C@@H]1CN(c2ncc(OCc3c(Cl)cccc3Cl)cn2)CC[C@@H]1O (racemic) | A′ (A′ = ≥10X) | A′ (A′ = ≥10X)
1000 to 10000 | 1000 to 10000 | NC(=O)C1CN(c2ncc(OCc3c(Cl)cccc3C(F)(F)F)cn2)CCO1 (stereo not drawn) | A′ (A′ = ≥10X) | A′ (A′ = ≥10X)
< 1000 | < 1000 | CCc1cccc(C(F)(F)F)c1COc1cnc(-n2cnc(CO)c2)nc1 | A′ (A′ = ≥10X) | A′ (A′ = ≥10X)
< 1000 | 1000 to 10000 | Cc1cccc(C(F)(F)F)c1COc1ccc(N2C(=O)NC3(CCCC3)C2=O)cc1 | A′ (A′ = ≥10X) | B′ (B′ = ≥5X to <10X)
> 10000 | > 10000 | OCc1ccn(-c2ncc(OC(F)(F)c3c(Cl)cccc3Cl)cn2)n1 | – | –
< 1000 | 1000 to 10000 | NC[C@H]1CN(c2ncc(OCc3c(Cl)cccc3Cl)cn2)CCO1 | A′ (A′ = ≥10X) | A′ (A′ = ≥10X)
1000 to 10000 | 1000 to 10000 | Cc1cccc(C(F)(F)F)c1COc1cnc(N2C[C@H](O)C[C@H](O)C2)nc1 | A′ (A′ = ≥10X) | A′ (A′ = ≥10X)
< 1000 | 1000 to 10000 | CC1(C)NC(=O)N(c2ccc(OCc3c(Cl)cccc3C(F)(F)F)cc2)C1=O | A′ (A′ = ≥10X) | A′ (A′ = ≥10X)
> 10000 | > 10000 | COc1cccc(Br)c1COc1ccc(N2CC(CO)OC2=O)cc1 (stereo not drawn) | A′ (A′ = ≥10X) | B′ (B′ = ≥5X to <10X)
< 1000 | < 1000 | Cc1cccc(C(F)(F)F)c1COc1cnc(N2CCO[C@@H](CO)C2)nc1 | A′ (A′ = ≥10X) | A′ (A′ = ≥10X)
1000 to 10000 | > 10000 | Cc1ccc(C(F)(F)F)c(COc2ccc(-n3cc(CO)nn3)cc2)c1F | B′ (B′ = ≥5X to <10X) | B′ (B′ = ≥5X to <10X)
1000 to 10000 | 1000 to 10000 | O=C1OCC(CO)=C1c1ccc(OCc2c(Cl)cccc2Cl)cc1 [4-[4-[(2,6-dichlorophenyl)methoxy]phenyl]-3-(hydroxymethyl)-2H-furan-5-one] | B′ (B′ = ≥5X to <10X) | B′ (B′ = ≥5X to <10X)

EC50 [1] [nM] | EC50 [2] [nM] | SMILES | CFTR G542X ACTIVITY Fold 10 μM G-418 [1] | CFTR R1162X ACTIVITY Fold 10 μM G-418 [2]
< 1000 | < 1000 | Cc1cccc(C(F)(F)F)c1COc1cnc(N2CCC(O)(CCO)CC2)nc1 | A′ (A′ = ≥10X) | A′ (A′ = ≥10X)
1000 to 10000 | 1000 to 10000 | C=C1NC(=O)N(c2ccc(OCc3c(Cl)cccc3Cl)cn2)C1=O | B′ (B′ = ≥5X to <10X) | B′ (B′ = ≥5X to <10X)
< 1000 | 1000 to 10000 | COC(=O)c1ncn(-c2ccc(OCc3c(C)cccc3C(F)(F)F)cc2)n1 | A′ (A′ = ≥10X) | A′ (A′ = ≥10X)
< 1000 | < 1000 | NC(=O)N1CCN(c2ncc(OCc3c(Cl)cccc3Cl)cn2)CC1CO (stereo not drawn) | A′ (A′ = ≥10X) | A′ (A′ = ≥10X)
1000 to 10000 | 1000 to 10000 | NCc1ccn(-c2ccc(OCc3c(Cl)cccc3Cl)cc2)n1 [[1-[4-[(2,6-dichlorophenyl)methoxy]phenyl]pyrazol-3-yl]methanamine] | B′ (B′ = ≥5X to <10X) | A′ (A′ = ≥10X)
< 1000 | < 1000 | Cc1cccc(C(F)(F)F)c1COc1ccc(-n2cnc(C(N)=O)n2)cc1 | B′ (B′ = ≥5X to <10X) | A′ (A′ = ≥10X)
1000 to 10000 | 1000 to 10000 | CN1CC(=O)N(c2ccc(OCc3c(Cl)cccc3C(F)(F)F)cn2)C1=O | A′ (A′ = ≥10X) | C′ (C′ = <5X)
1000 to 10000 | 1000 to 10000 | OCc1cn(-c2ncc(OCc3c(Cl)cccc3C(F)(F)F)cn2)nn1 | A′ (A′ = ≥10X) | A′ (A′ = ≥10X)
< 1000 | < 1000 | OC[C@H]1CN(c2ncc(OCc3c(Cl)cccc3C(F)(F)F)cn2)CCO1 | A′ (A′ = ≥10X) | A′ (A′ = ≥10X)
1000 to 10000 | 1000 to 10000 | FC1(F)CCN(c2ncc(OCc3c(Cl)cccc3C(F)(F)F)cn2)C1 | A′ (A′ = ≥10X) | A′ (A′ = ≥10X)
1000 to 10000 | 1000 to 10000 | Cc1cccc(C(F)(F)F)c1COc1ccc(-n2cc(CO)nn2)cc1 [[1-[4-[[2-methyl-6-(trifluoromethyl)phenyl]methoxy]phenyl]triazol-4-yl]methanol] | A′ (A′ = ≥10X) | A′ (A′ = ≥10X)
1000 to 10000 | > 10000 | O=C(O)c1ncn(-c2ccc(OCc3c(Cl)cccc3C(F)(F)F)cn2)n1 [1-(5-{[2-chloro-6-(trifluoromethyl)phenyl]methoxy]pyridin-2-] | C′ (C′ = <5X) | –
< 1000 | 1000 to 10000 | Cc1cccc(C(F)(F)F)c1COc1cnc(-c2cc(CO)on2)nc1 | A′ (A′ = ≥10X) | A′ (A′ = ≥10X)
1000 to 10000 | 1000 to 10000 | O=C(O)C1CCN(c2ncc(OCc3c(Cl)cccc3C(F)(F)F)cn2)C1 (stereo not drawn) | A′ (A′ = ≥10X) | B′ (B′ = ≥5X to <10X)
1000 to 10000 | > 10000 | NC(=O)c1ncn(-c2ncc(OCc3c(Cl)cccc3Cl)cn2)n1 [1-[5-[(2,6-dichlorophenyl)methoxy]pyrimidin-2-yl]-1,2,4-triazole-3-carboxamide] | C′ (C′ = <5X) | –
1000 to 10000 | 1000 to 10000 | OCC1CN(c2ncc(OCc3c(F)cccc3C(F)(F)F)cn2)CCO1 (stereo not drawn) | A′ (A′ = ≥10X) | A′ (A′ = ≥10X)
< 1000 | < 1000 | Cc1cccc(C(F)(F)F)c1COc1ccc(N2C(=O)NC(C)(C)C2=O)cc1 | A′ (A′ = ≥10X) | A′ (A′ = ≥10X)
< 1000 | < 1000 | NCC1CCCN(c2ncc(OCc3c(Cl)cccc3Cl)cn2)C1 (stereo not drawn) [[1-[5-[(2,6-dichlorophenyl)methoxy]pyrimidin-2-yl]-3-piperidyl]methanamine] | A′ (A′ = ≥10X) | A′ (A′ = ≥10X)
1000 to 10000 | > 10000 | NCC1CN(c2ccc(OCc3c(Cl)cccc3Cl)cc2)C(=O)O1 (stereo not drawn) [5-(aminomethyl)-3-[4-[(2,6-dichlorophenyl)methoxy]phenyl]oxazolidin-2-one] | B′ (B′ = ≥5X to <10X) | A′ (A′ = ≥10X)

SMILES | EC50 [1] [nM] | EC50 [2] [nM] | CFTR G542X ACTIVITY Fold 10 μM G-418 [1] | CFTR R1162X ACTIVITY Fold 10 μM G-418 [2]
Cc1cccc(C(F)(F)F)c1COc1cnc(N2CCNCC2)nc1 [5-{[2-methyl-6-(trifluoromethyl)phenyl]methoxy}-2-(piperazin-1-yl)pyrimidine] | 1000 to 10000 | 1000 to 10000 | A′ (A′ = ≥10X) | A′ (A′ = ≥10X)
